Experimental data as given in US9624520B2, “Biosynthetically generated pyrroline-carboxy-lysine and site specific protein modifications via chemical derivatization of pyrroline-carboxy-lysine and pyrrolysine residues” (Novartis AG, priority 2008, dated 2017).
Entries after “also recorded” stand apart in the source; their conditions may differ. Counter-ions that a name gives are not always drawn.

Tests used:
[1] = system: HK100 cells; assay: Incorporation of other analogues and precursors into FAS-TE L2222TAG (Ni-NTA, SDS-PAGE, Bradford); assay type: cell-based, Escherichia coli; details: for full-length protein production / PCL biosynthesis from precursor: Escherichia coli cells with pylB/pylC/pylD/pylS/pylT; for Bradford: 25 ml culture
[2] = pH 5
[3] = target: T1, pylS tRNA synthetase (Methanosarcina mazei, UniProt Q8PWY1); assay: Incorporation test with synthetic pyrrolysine analogues (full-length hRBP4 mutant #6); assay type: cell-based; details: 2 or 5 mM analogue, HEK293F cells with pylT/pylS only, Western blot and SDS-PAGE
T1 construct: expressed in transfected cells; host or cells: HEK293F
Description: In parallel to the above experiment, the production of full-length hRBP4 Phe122PCL protein (mutant #6) was also measured in the presence of a series of synthetic pyrrolysine analogues designed with an acetyl moiety for chemical derivatization after protein incorporation (FIG. 14B). The synthetic analogues were prepared as described in Example 19. pRSRBP was co-transfected into HEK293F cells with pCMVpyS which supplies one gene copy of pylT tRNA and of pylS tRNA synthetase. Depending on solubility, the synthetic analogues were added to the media either at 2 or 5 mM final concentration.

[4] = system: HEK293F cells; assay: Incorporation test with putative PCL and pyrrolysine precursors (full-length hRBP4 Phe122PCL); assay type: cell-based, human; details: 5 mM precursor; HEK293F cells with pylT, pylS, pylB, pylC, pylD; Western blot and SDS-PAGE of Ni-NTA purified samples
Description: The production of full-length hRBP4 Phe122PCL protein (mutant #6) was measured in the presence of the putative PCL precursor D-ornithine, D-proline, D-arginine, D-glutamic acid, 4-hydroxyl-D-proline and 2-pyrrolidone-5-carboxylic acid (FIGS. 13A and B, FIG. 14A). pRSRBP was co-transfected into HEK293F cells with pCMVpyS, pCMVpyB, pCMVpyC and pCMVpyD and cells were grown in the presence of 5 mM of the putative precursor (FIG. 14A) as described in Example 2.

[5] = system: PylD; assay: NMR evaluation of Lys-Nε-D-Orn as substrate for PylD; assay type: biochemical, Methanosarcina mazei
[6] = Compound stability (degradation measured by nuclear magnetic resonance spectroscopy); assay type: physicochemical
[7] = purified FAS-TE from HK100 cells with pylB/pylC/pylD/pylS/pylT (lanes 5-11)

T1 sequence (Q8PWY1 whole entry): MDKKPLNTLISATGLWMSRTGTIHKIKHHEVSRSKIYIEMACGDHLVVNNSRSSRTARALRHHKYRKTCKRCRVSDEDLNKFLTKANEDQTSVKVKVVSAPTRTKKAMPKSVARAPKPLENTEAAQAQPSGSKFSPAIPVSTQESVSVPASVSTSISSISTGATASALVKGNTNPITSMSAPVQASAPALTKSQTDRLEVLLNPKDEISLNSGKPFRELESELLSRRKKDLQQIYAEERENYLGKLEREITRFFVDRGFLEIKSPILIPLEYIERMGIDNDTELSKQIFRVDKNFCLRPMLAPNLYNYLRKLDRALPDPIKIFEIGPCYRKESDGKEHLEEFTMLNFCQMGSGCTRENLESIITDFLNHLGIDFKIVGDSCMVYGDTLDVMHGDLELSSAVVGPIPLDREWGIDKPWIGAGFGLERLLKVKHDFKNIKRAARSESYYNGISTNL

O=C(O)C1CCC=N1 (racemic) [P5C, Ammonium DL-1-pyrroline-5-carboxylate]
full-length protein production / PCL biosynthesis from precursor [1]: failed to produce full-length protein; also recorded: not sufficient to support PCL biosynthesis | Bradford [1, 7]: 0.075 mg/25 ml

N[C@@H](CCCCNC(=O)C1CCC=N1)C(=O)O (mixture of isomers) [PCL-A, (S)-2-amino-6-(3,4-dihydro-2H-pyrrole-2-carboxamido) hexanoic acid]
incorporation into protein (full-length FAS-TE) ([1]; Escherichia coli cells with only pylS and pylT genes): incorporated with high efficiency; also recorded: incorporated into proteins | Bradford ([1]; purified FAS-TE from HK100 cells with pylS/pylT genes only (lanes 1-4)): 0.539 mg/25 ml

Nc1ccc([N+](=O)[O-])cc1C(=O)c1ccccc1 [2-ANBP, 2-amino-5-nitro-benzophenone]
solubility [2]: low solubility

N[C@@H](CCCCNC(=O)OC1CCCC1)C(=O)O [CYC, N-ε-cyclopentyloxycarbonyl-L-lysine, reference compound]
production of full-length hRBP4 (mutant #6) in the presence of synthetic pyrrolysine analogue [3]: protein production to a level similar to D-ornithine; also recorded: measurable protein band

N=C(N)NCCC[C@@H](N)C(=O)O [D-arginine]
production of full-length hRBP4 Phe122PCL protein in the presence of putative precursor [4]: above background protein production

N[C@H](CCC(=O)O)C(=O)O [D-glutamic acid]
production of full-length hRBP4 Phe122PCL protein in the presence of putative precursor [4]: did not result in full-length protein production above background

NCCC[C@@H](N)C(=O)O [D-ornithine]
production of full-length hRBP4 Phe122PCL protein in the presence of putative precursor [4]: measurable protein band

O=C(O)[C@H]1CCCN1 [D-proline]
production of full-length hRBP4 Phe122PCL protein in the presence of putative precursor [4]: did not result in full-length protein production above background

NCCC[C@@H](N)C(=O)NCCCC[C@H](N)C(=O)O [Lys-Nε-D-ornithine, (2S)-2-amino-6-((R)-2,5-diaminopentanamido)hexanoic acid]
substrate for PylD [5]: substrate for PylD | full-length protein production / PCL biosynthesis from precursor ([1]; listed as Lys-Nε-D-Orn): resulted in protein expression with PCL incorporated at the amber codon | full-length protein production / PCL biosynthesis from precursor ([1]; listed as Lys-Nε-D-orn): substantial amounts of full-length protein | Bradford [1, 7]: 1.66 mg/25 ml

O=C(O)C1=NCCC1 [P2C, 3,4-dihydro-2H-pyrrole-5-carboxylate]
full-length protein production / PCL biosynthesis from precursor [1]: failed to produce full-length protein; also recorded: not sufficient to support PCL biosynthesis | Bradford [1, 7]: 0.103 mg/25 ml

CC(=O)CC(=O)NCCCC[C@H](N)C(=O)O [TU3000-016, (S)-2-amino-6-(3-oxobutanamido)hexanoic acid hydrochloride]
production of full-length hRBP4 (mutant #6) in the presence of synthetic pyrrolysine analogue ([3]; hydrochloride): measurable but much lower incorporation; also recorded: viable substrate for the pylS tRNA synthetase | compound stability [6]: not stable
